Assay results taken from ChEMBL document CHEMBL3822384, “2-(3-Methoxyphenyl)quinazoline Derivatives: A New Class of Direct Constitutive Androstane Receptor (CAR) Agonists” (J Med Chem, 2016).

Experiments:
[1] = molecular target: T1, Aryl hydrocarbon receptor (Homo sapiens, UniProt P35869); test: Agonist activity at AHR in human HepaRG cells assessed as upregulation of CYP1B1 mRNA expression at 10 uM after 24 hrs by qRT-PCR method; format: cell-based
T1 sequence (P35869 whole entry): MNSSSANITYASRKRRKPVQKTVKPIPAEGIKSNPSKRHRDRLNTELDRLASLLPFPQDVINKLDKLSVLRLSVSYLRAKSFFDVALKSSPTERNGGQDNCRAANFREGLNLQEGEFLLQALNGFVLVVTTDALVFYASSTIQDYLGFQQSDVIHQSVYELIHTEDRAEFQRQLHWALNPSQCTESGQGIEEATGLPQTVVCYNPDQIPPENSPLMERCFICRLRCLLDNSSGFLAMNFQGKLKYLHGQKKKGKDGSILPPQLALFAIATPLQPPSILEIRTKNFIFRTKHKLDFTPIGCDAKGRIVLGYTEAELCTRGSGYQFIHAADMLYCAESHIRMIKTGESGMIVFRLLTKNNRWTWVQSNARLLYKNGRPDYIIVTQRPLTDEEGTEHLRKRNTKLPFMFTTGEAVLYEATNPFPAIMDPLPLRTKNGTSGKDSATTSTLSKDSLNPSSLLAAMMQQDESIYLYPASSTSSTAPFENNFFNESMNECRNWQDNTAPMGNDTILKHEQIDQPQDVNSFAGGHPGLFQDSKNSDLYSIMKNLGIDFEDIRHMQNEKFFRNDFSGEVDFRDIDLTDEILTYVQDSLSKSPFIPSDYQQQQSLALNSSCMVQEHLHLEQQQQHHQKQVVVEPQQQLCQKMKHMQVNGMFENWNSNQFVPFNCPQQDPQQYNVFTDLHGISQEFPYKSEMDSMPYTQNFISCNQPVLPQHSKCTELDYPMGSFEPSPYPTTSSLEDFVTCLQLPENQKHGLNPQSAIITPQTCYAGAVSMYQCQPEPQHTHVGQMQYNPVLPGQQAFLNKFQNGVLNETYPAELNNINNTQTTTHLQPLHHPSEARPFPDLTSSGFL

[2] = molecular target: T2, Nuclear receptor subfamily 1 group I member 3 (Homo sapiens, UniProt Q14994); test: Agonist activity at CAR in human primary hepatocytes assessed as upregulation of MDR/ABCB1 mRNA expression at 10 uM after 24 hrs by qRT-PCR method; format: cell-based, Hepatocyte
T2 sequence (Q14994 whole entry): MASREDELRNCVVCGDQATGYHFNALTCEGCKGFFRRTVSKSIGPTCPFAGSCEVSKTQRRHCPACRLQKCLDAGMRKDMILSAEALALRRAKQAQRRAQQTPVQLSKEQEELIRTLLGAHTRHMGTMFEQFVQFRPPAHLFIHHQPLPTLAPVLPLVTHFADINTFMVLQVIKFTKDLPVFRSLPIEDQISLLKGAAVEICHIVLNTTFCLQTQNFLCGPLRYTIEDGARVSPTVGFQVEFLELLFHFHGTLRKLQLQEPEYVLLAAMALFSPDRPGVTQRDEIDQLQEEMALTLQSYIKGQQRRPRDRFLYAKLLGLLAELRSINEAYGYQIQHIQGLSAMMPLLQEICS

[3] = molecular target: T3, AHR (Homo sapiens, UniProt P35869); test: (§1) Agonist activity at AHR expressed in human HepG2 cells after 24 hrs by pXRE-luciferase reporter gene assay; format: cell-based; conditions: human, HepG2 cells expressing AHR; read-out: Imax
T3 sequence (P35869 whole entry): T1 sequence (P35869 whole entry)

[4] = molecular target: T1, Aryl hydrocarbon receptor; test: as §1; format: cell-based
[5] = molecular target: T4, Nuclear receptor subfamily 1 group I member 2 (Homo sapiens, UniProt O75469); test: Agonist activity at PXR in human primary hepatocytes assessed as upregulation of MDR/ABCB1 mRNA expression at 10 uM after 24 hrs by qRT-PCR method; format: cell-based, Hepatocyte
T4 sequence (O75469 whole entry): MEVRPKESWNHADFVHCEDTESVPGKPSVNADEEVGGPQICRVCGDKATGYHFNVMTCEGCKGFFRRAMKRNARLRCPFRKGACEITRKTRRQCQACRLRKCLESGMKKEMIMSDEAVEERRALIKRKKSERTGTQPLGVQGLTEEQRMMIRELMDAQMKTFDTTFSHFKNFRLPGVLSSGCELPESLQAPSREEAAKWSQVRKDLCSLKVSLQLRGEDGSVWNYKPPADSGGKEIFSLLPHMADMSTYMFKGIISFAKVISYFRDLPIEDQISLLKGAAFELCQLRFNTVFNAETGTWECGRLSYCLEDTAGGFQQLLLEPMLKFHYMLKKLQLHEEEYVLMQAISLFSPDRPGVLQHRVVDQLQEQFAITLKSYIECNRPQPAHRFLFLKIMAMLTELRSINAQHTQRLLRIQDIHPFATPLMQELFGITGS

[6] = molecular target: T2, Nuclear receptor subfamily 1 group I member 3; test: Agonist activity at human CAR expressed in human HepG2 cells assessed as induction of CYP2B6 mRNA expression at 1 to 10 uM after 24 hrs by qRT-PCR method; format: cell-based; conditions: hepg2, 24 h
[7] = molecular target: T2, Nuclear receptor subfamily 1 group I member 3; test: Agonist activity at human CAR expressed in human HepG2 cells assessed as induction of CYP2B6 mRNA expression at 1 to 5 uM after 24 hrs by qRT-PCR method; format: cell-based; conditions: hepg2, 24 h

Row | SMILES | Activity [1] | Activity [2] | Emax at 24 h [3] | EC50 [4] | Activity [5] | Activity [6] | Activity [7]
1 | COc1cccc(-c2nc(SC)c3ccccc3n2)c1 | Active | Active | 219% | 2300 nM | Active |  | 
2 | COc1cccc(-c2nc(OC)c3ccccc3n2)c1 | Active | Active | 290% | 7300 nM | Active | Active | 
3 | COc1cccc(-c2nc3ccccc3c(=S)[nH]2)c1 | Active | Active | 266% | 630 nM | Active |  | Active
